Patent publication US5658910A, “Nicotinic acid esters” (Pharmacia AB, priority 1992, dated 1997)
Structures can show the parent of a compound that is named as a salt.

Columns and labels:
[1] = target: T1, 5HT2-receptors (Rattus norvegicus, UniProt P14842); assay: Affinity for 5HT2-receptors (Test 1, 3H-ketanserin binding, Leysen et al.); details: 3H-ketanserin as ligand
T1 construct: from tissue
Procedure: Test 1. Affinity for 5HT2-receptors
The binding assay was carried out essentially as described by Leysen et al., (Mol. Pharmcol. 21, 301-314, 1982) using 3 H-kezanserine as ligand.

[2] = target: T2, 5HT1A-receptors (Bos taurus, UniProt F6Q2H9); assay: Affinity for 5HT1A-receptors (Test 2, Peroutka binding assay)
T2 construct: from tissue
T2 sequence (F6Q2H9 1-422): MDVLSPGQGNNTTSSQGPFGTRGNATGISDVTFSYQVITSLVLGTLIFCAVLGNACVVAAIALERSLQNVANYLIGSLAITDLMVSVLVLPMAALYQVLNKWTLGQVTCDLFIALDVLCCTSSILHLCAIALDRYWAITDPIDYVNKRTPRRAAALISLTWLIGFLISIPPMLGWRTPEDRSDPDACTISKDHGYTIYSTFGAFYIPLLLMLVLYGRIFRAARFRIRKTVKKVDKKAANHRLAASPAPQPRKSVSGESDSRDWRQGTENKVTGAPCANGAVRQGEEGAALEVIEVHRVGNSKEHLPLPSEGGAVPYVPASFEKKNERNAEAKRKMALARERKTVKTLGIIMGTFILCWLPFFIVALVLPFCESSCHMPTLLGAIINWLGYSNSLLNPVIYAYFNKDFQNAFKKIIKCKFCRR

T1 sequence (P14842 whole entry): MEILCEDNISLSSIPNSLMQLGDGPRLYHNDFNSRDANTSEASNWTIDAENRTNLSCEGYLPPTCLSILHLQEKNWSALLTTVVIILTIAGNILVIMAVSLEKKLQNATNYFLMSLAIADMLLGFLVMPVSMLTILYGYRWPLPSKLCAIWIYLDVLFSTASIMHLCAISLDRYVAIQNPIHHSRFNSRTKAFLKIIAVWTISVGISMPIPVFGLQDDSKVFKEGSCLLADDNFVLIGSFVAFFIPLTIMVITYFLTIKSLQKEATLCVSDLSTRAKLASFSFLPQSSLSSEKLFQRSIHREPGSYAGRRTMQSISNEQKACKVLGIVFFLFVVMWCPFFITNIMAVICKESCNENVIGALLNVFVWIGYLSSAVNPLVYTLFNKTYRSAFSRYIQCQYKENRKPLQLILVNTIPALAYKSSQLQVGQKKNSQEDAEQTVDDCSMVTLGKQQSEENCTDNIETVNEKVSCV

Row | Structure (SMILES) | Ki [1] | Ki [2]
1 | CCOC(=O)c1cccnc1N1CCN(CCCC(c2ccc(F)cc2)c2ccc(F)cc2)CC1 [2:1, 3-Pyridinecarboxylic acid (2-(4-(4,4-bis(4-fluorophenyl)butyl)-1-piperazinyl-)ethyl ester hydrochloride] | 5.7 nM | 1.2 nM
2 | COC(=O)c1cccnc1N1CCN(CCCC(c2ccc(F)cc2)c2ccc(F)cc2)CC1 [2:4, 1-[4,4 -Bis(p-fluorophenyl)butyl]-4-(3-methoxycarbonyl-2-pyridyl)-piperazine, hydrochloride] | 4 nM | 0.7 nM
3 | CC(C)CCOC(=O)c1cccnc1N1CCN(CCCC(c2ccc(F)cc2)c2ccc(F)cc2)CC1 [2:7, 1-[4,4-Bis(p-fluorophenyl)butyl]-4-(3-isoamyloxycarbonyl-2-pyridyl)-piperazine, hydrochloride] | 2.7 nM | 14 nM
4 | O=C(OCc1ccccn1)c1cccnc1N1CCN(CCCC(c2ccc(F)cc2)c2ccc(F)cc2)CC1 [2:10, 1-[4,4-Bis(p-fluorophenyl)butyl]-4-[3-(2-pyridinylmethoxycarbonyl)-2-pyridyl]-piperazine, hydrochloride] | 0.6 nM | –
